Assay results reported in patent US11160788B2, “Caspase-1 inhibition and uses thereof for prevention and treatment of neurological conditions” (priority 2016, dated 2021).
“Also recorded” adds a separate entry of the source.

How the values were obtained:
[1] = tested on: J20 mice; test: Barnes maze spatial memory, treatment of symptomatic J20 mice; assay type: in vivo, mouse
Text: FIG. 8: VX-765 treatment restores cognitive function in J20 mice. (a) Experimental paradigm. Intraperitoneal vehicle-injected wild type (WT+Vehicle; n=13) and J20 mice (J20+Vehicle: n=9), and VX-765-injected J20 mice (J20+VX-765: n=9) mice were behaviourally assessed at 5 different time-points: baseline before treatment (baseline untreated J20 were grouped together; n=18), after 3 IP injections/wk of VX-765 or vehicle (Treatment 1), after 6 additional injections over 2 weeks (Treatment 2), after 4-week Washout period, and after an additional 3 injections in one week (Treatment 3). Mice were sacrificed at 8 months of age after Treatment 3 (b) NOR Discrimination index (Treatment main effect, F(2,20)=85.8, p<0.0001; Time main effect, F(4,80)=4.188, p=0.0039; Treatment×Time interaction, F(8,80)=[…], two-way repeated-measures ANOVA, Dunnett's post-hoc compared to J20+Vehicle). (c) Distance traveled during Open Field task. Data analyzed by repeated measures two-way ANOVA (Treatment main effect, F(2,19)=11.47, p=0.0005; Treatment×Time interaction, F(8,76)=5.69, p<0.0001, two-way repeated-measures ANOVA, Dunnett's post-hoc compared to J20+Vehicle). (d-i) Barnes maze analysis. Learning acquisition (d,g), probe test primary latency and errors (e,h), and target hole preference (f,i); # of pokes of each hole labelled +1 to +9 to the right or −1 to −9 to the left of the target hole during the probe) after Treatment 2 (d-f) and Washout (g-i). Probe tests were analyzed (Treatment 2 primary latency, F(2,52)=5.879, p=0.0050; Treatment 2 primary errors, F(2,52)=9.998, p=0.0002; Washout primary latency, F(2,22)=4.076, p=0.0312; Washout primary errors, F(2,22)=10.84, p=0.0005, ANOVA, Tukey's post-hoc). * p<0.05, ***p<0.001, ****p<0.0001.
FIG. 9: VX-765 dose-dependently restores cognitive function in J20 mice. (a) NOR discrimination index after VX-765 dose response at Treatment 1 (F(3,24)=20.42, p<0.0001, ANOVA, Dunnett's post-hoc compared to J20 0 mg/kg), Treatment 2 (F(3,23)=12.83, p<0.0001, ANOVA, Dunnett's post-hoc compared to J20 0 mg/kg), Washout, and Treatment 3 (F(3,23)=8.828, p=0.0004, ANOVA, Dunnett's post-hoc compared to J20 0 mg/kg). Note that the 50 mg/kg dose was not performed at the same time and is placed here for comparison purposes only. Nevertheless, the discrimination index was stable between experiments (b-g) Barnes maze Treatment 2 (b-d) and Washout (e-g) learning acquisition (b,e), probe test (c,f), and target hole preference (d,g). For T2 primary errors, F(2,14)=5.69, p=0.0155, ANOVA, Dunnett's post-hoc compared to J20+Vehicle. * p<0.05, ***p<0.001, ****p<0.0001.
Anxiety and hyperactivity are monitored in an open-field paradigm, episodic memory with the NOR, spatial memory with the Barnes maze, and short or long term working memory with the Y maze before and after treatments. Repeated measures are acceptable for the NOR, Barnes and Y maze^2-4.
Five month old mice were behaviorally and longitudinally assessed before treatment (baseline), after 3 injections/week of 50 mg/kg VX-765 (Treatment 1; T1), after an additional 2 weeks of injections (Treatment 2; T2), after 4 weeks without treatment (Washout; WO), and after 3 more injections/week (Treatment 3; T3) before sacrificing the mice at 8 months of age as illustrated in FIG. 8a. […] Results were consistent across individual mice (FIG. 15c). […] However, during the probe test, the primary latency, primary errors (FIG. 8e) and the ability to find the target (T) escape hatch (FIG. 8f) were clearly impaired in vehicle-injected J20 compared to WT littermates. […] After WO, all mice performed well during the training phase of the Barnes maze (FIG. 8g). […] J20 mice performance in the Y maze working memory task was consistently low but not always statistically different from WT or treated J20 mice (FIG. 15e).

[2] = tested on: J20 mice; test: Iba1 microglia immunohistochemistry, treated symptomatic J20 mice brains; assay type: in vivo, mouse
Text: FIG. 10: VX-765 reverses neuroinflammation in J20 mice. (a) Iba-1 positive microglia immunohistographs in the stratum lacunosum molecular area of the hippocampus and S1 of cortex (Scale bar=50 μm). (b) Stereological quantification of Iba-1^+ microglia for WT+Vehicle (n=6), J20+Vehicle (n=5), and J20+VX-765 (n=4) in the hippocampus from the pyramidal cell layer to the stratum lacunosum molecular layer (F(2,11)=58, p<0.0001) and cortex (F(2,11)=39.95, p<0.0001, ANOVA, Dunnett's post-hoc compared to J20+Vehicle, ***p<0.001). (c) Average percentage distribution of morphological microglial subtypes 1 (black (lowermost) bar), 2 (light grey bar), 3 (dark grey bar) and 4 (black (uppermost) bar). (d) II1-β pg/mg levels measured by ELISA in pre-treated J20 at 5 months of age and in treated WT and J20 8 months of age. (e) Astroglial GFAP^+ immunohistographs.
To assess AD-like pathology, immunohistochemical analyses were performed to detect amyloid deposition (anti-AβF25276)^5,6, microglial (Iba1) activation^7, astrogliosis (GFAP), synaptophysin protein levels on coronal brain sections. Multiplex MSD ELISA was used to assess Aβ levels and 38,40, and 42 subtypes, and II-1β brain levels. RT-PCR was used to assess levels of human APP^Sw/Ind.

`CCO[C@@H]1OC(=O)C[C@@H]1NC(=O)[C@@H]1CCCN1C(=O)[C@@H](NC(=O)c1ccc(N)c(Cl)c1)C(C)(C)C` [VX-765, (S)-1-((S)-2-{[1-(4-amino-3-chloro-phenyl)-methanoyl]-amino}-3,3-dimethyl-butanoyl)-pyrrolidine-2-carboxylic acid ((2R,3S)-2-ethoxy-5-oxo-tetrahydro-furan-3-yl)-amide] was tested, and the “Barnes maze ability to recognize the escape hatch in probe test” value ([1]; 10 mg/kg, after Treatment 2) was “improved in their ability to recognize the escape hatch”, the “Barnes maze primary latency” value ([1]; 10 mg/kg, after Treatment 2) was “remained impaired in primary latency” and the “Barnes maze primary latency and errors” value ([1]; 10 mg/kg, after washout) was “No significant difference”. The “Barnes maze ability to recognize the escape hatch in probe test” value ([1]; 25 mg/kg, after Treatment 2) was “improved in their ability to recognize the escape hatch”, the “Barnes maze primary errors” value ([1]; 25 mg/kg, after Treatment 2) was “decreased” and the “Barnes maze primary latency” value ([1]; 25 mg/kg, after Treatment 2) was “remained impaired in primary latency”. For the same molecule, the “Barnes maze primary latency and errors” value ([1]; 25 mg/kg, after washout) was “No significant difference”, the “Barnes maze recognition of the position of the escape hatch” value ([1]; 25 mg/kg, after washout) was “retained the ability to recognize the position of the escape hatch” and the “Barnes maze probe test: primary latency, primary errors, finding target hatch” value ([1]; 50 mg/kg IP, after Treatment 2) was “eliminated these spatial memory deficits”. For the same molecule, the “Barnes maze ability to find the target hatch” value ([1]; 50 mg/kg IP, after washout) was “performed better than vehicle-injected J20 mice”, the “Barnes maze probe test primary latency and errors” value ([1]; 50 mg/kg IP, after washout) was “appeared normal in primary latency and errors” and the “Iba1-positive microglia in hippocampus CA1” value ([2]; 50 mg/kg, 12 injections, 8 month old J20) was “normalized; also recorded: reduced to WT levels”. For the same molecule, the “number of Iba1+ microglia, pyramidal cell layer to stratum lacunosum molecular layer of CA1” value ([2]; 50 mg/kg, after Treatment 3, stereological quantification) was “returned to normal” and the “microglial activation measured morphologically” value ([2]; hippocampus and cortex, vs vehicle-treated J20) was “more resting, and less activated, microglia”.
